The values below come from article PMC3024946, “Hydroxyproline-containing collagen analogs trigger the release and activation of collagen-sequestered proMMP-2 by competition with prodomain-derived peptide P33-42” (Fibrogenesis & Tissue Repair, 2011).

Data set [1] deals with ActMMP-2. In words: Solid-phase binding of [125I]-actMMP-2 to immobilized collagens/peptides (microwells). Conditions: ActMMP-2, 2 ng/well; coated wells; 4°C, 2 h; residual radioactivity; mean ± SD, at least five experiments in triplicate. Details: species or system human. As for the experimental part: (§1) Human recombinant proMMPs and in vitro activated MMPs were obtained from Invitek and were labeled with the [^125I]-Bolton-Hunter reagent according to the manufacturer's instructions (PerkinElmer, Rodgau, Germany) before the buffer was exchanged for phosphate-buffered saline (PBS) with 0.05% (vol/vol) Tween 20 by gel filtration as described previously. Specific radioactivity for [^125I]-MMPs was 3-9 × 10^4 cpm/ng. Precipitation with 10% (wt/vol) trichloroacetic acid and 200 μg of BSA recovered 96% to 100% of protein-bound radioactivity. Aliquots of labeled MMPs were frozen and stored at -80°C. The activity and integrity were checked by substrate gel zymography using SDS-PAGE and autoradiography with overnight exposure to Biomax MS film (Kodak, Stuttgart, Germany) (Figure 2A).
(§2) Native human CI, CIII and CVI were purified from skin tissue and placenta. The CI single chains α1(I) and α2(I) were obtained and modified as described previously. To prepare defined fragments, 2 mg of α1(I) were dissolved in 1 ml of 70% (vol/vol) formic acid at room temperature, the tubes were flushed with nitrogen for 10 min, and then 2 mg of CB were added. After incubation for 4 h at 37°C, free CB was neutralized and the samples were lyophilized. The peptides CB3, CB6, CB7 and CB8 were separated from the reaction mixture by gel filtration followed by ion-exchange chromatography. The resulting peptides were characterized by amino acid analysis and SDS-PAGE [45, 46]. The CB peptides had the following melting temperatures: CB3, 23.9°C; CB6, 26.7°C; CB7, 28.1°C; and CB8, 28.0°C [31].
(§3) The following collagen analogs and control peptides were synthesized as described previously: (GPO)10, H-Gly-Cys-Hyp-(Gly-Pro-Hyp)10-Gly-Cys-Hyp-Gly-NH2; (GPP)10, H-Gly-Cys-Pro-(Gly-Pro-Pro)10-Gly-Cys-Pro-Gly-NH2; and GAP, H-Gly-Ala-Cys-(Gly-Ala-Pro)5-Gly-Phe-Hyp-Gly-Glu-Arg-(Gly-Ala-Pro)5-NH2. Peptides (POG)10, (PPG)10 and (POG)5 were purchased from Peptide International (Louisville, KY, USA). Spontaneous triple-helix assembly was approved by polarimetry over a 10-cm path length at 1°C/min in 10 mM phosphate buffer, pH 7.4. At 5 mg/ml, midpoints of melting curves occurred at 82.3 ± 1.4°C for (GPO)10 and at 45.8 ± 0.8°C for (GPP)10. […] Graphs were calculated from the primary data using a custom fitting program written by D.A. Slatter (Department of Biochemistry, University of Cambridge, Cambridge, UK [48]) to model different possible transitions. All collagens, CI derivatives and peptides were stored in stock solutions of 2 mg/ml in 150 mM acetic acid at -20°C.
(§4) ProMMP-2 and proMMP-9 or actMMP-2 and actMMP-9 were bound to nitrocellulose and polystyrene-immobilized native collagens, CI chains, CB peptides or structural analogs. Serial dilutions of collagens or CI derivatives in 150 mM acetic acid were dotted at 3 × 3 μl to a nitrocellulose membrane with high protein-binding capacity (GE Healthcare, Munich, Germany). Air-dried membranes were blocked with PBS and 0.3% (vol/vol) Tween 20 overnight at 4°C, washed three times, and incubated with 1 ng/ml [^125I]-pro- and actMMP-2 and pro- and actMMP-9 in PBS and 0.3% (vol/vol) Tween 20 for 2 h at room temperature. Membranes were washed again and air-dried, and bound MMP was monitored by autoradiography. In parallel, polystyrene microtiter plates (Dynex, Chantilly, VA, USA) were coated with collagen proteins and peptides. Here 2 μg/well or 200 ng/well proteins and peptides or BSA as control were immobilized in 100 μl of 50 mM ammonium bicarbonate buffer, pH 9.6, by overnight incubation at 4°C. Immobilization efficacies were 20% to 45% of total proteins. Wells were washed three times with PBS, and nonspecific binding sites were blocked with PBS and 0.05% (vol/vol) Tween 20 for 1 h at room temperature. All incubation steps were performed with 2 ng of [^125I]-MMPs at 4°C for 2 h. […]

Data set [2] concerns ActMMP-9. In words: Solid-phase binding of [125I]-actMMP-9 to immobilized collagens/peptides (microwells). Also noted: species or system human. Conditions: ActMMP-9, 2 ng/well; coated wells; 4°C, 2 h; residual radioactivity; mean ± SD, at least five experiments in triplicate. Here is the method: as §1, §2, §3, §4
In data set [3] the test system is ProMMP-2. In words: Solid-phase binding of [125I]-proMMP-2 to immobilized collagens/peptides (microwells). Also noted: species or system human. The conditions noted are these: ProMMP-2, 2 ng/well; coated wells; 4°C, 2 h; residual radioactivity; mean ± SD, at least five experiments in triplicate. Here is the method:
as §1, §2, §3, §4

For data set [4], the system named is ProMMP-9. In words: Solid-phase binding of [125I]-proMMP-9 to immobilized collagens/peptides (microwells). Details: species or system human. The conditions noted are these: ProMMP-9, 2 ng/well; coated wells; 4°C, 2 h; residual radioactivity; mean ± SD, at least five experiments in triplicate. As for the experimental part:
as §1, §2, §3, §4

In data set [5] the test system is ProMMP-2. Put plainly: Fluorogenic short-substrate assay, activation of proMMP-2. It counts as biochemical, human. The conditions noted are these: proMMP-2; CI-coated wells. Here is the method: (§5) Enzymatic activities of MMPs were studied spectrofluorimetrically by cleavage of fluorogenic substrates in MMP activity buffer within 2 to 5 h. For gelatinases 800 nM MCA-Pro-Leu-Gly-Leu-Dnp-Dap-Ala-Arg-NH2 (λex/em 328/393 nm; Bachem, Bubendorf, Switzerland) or 10 μg/ml DQ-gelatine were used, according to the method described by Knight et al. for collagenases 800 nM MCA-Pro-Cha-Gly-Nva-His-Ala-Dpa-NH2 (λex/em 280/360 nm; Anaspec, San José, CA, USA). In some experiments, proMMP-2 was fully activated in the presence of 1 mM APMA prior to the kinetic measurements. A quantity of 50 ng pro- or actMMP-2 alone or mixed with 10- to 150-fold molar excesses of (GPO)10, GAP, P33-42 or mixtures of (GPO)10 and P33-42, were added to CI-coated, BSA-coated (1 μg/well both) or uncoated wells containing 150 μl of the respective substrate solution. The peptide P33-42 was purchased from the Institute of Biochemistry (Humboldt-University, Berlin, Germany). The influence of CI on MMP-2 enzymatic activity against the quenched fluorescent substrate could be excluded. Background subtraction (measurement without MMPs) was applied to all curves. All experiments were performed with a fluorescence microplate reader (Molecular Devices, Sunnyvale, CA, USA) and black 96-well microtiter plates with a clear bottom (Greiner bio-one, Frickenhausen, Germany).

Data set [6] has as its system ActMMP-2. Put plainly: Fluorogenic short-substrate assay, activity of actMMP-2. The class given is biochemical, human. The conditions noted are these: CI-coated wells. As for the experimental part:
as §5

The conditions of data set [7]: soluble human placenta-isolated triple-helical portion of CI; ref [30]; cited from earlier work. An excerpt: We tested α1(I) chains, which rapidly refold into triple-helical conformation in neutral buffers at room temperature, as well as CB-peptides of the α1(I) chain, where the length of the triple helix affects their thermal stability. Here the strength of binding of proMMP-2 and proMMP-9 to CB peptides directly correlated to the thermal stability of its tri ... || Native human CI, CIII and CVI were purified from skin tissue and placenta. The CI single chains α1(I) and α2(I) were obtained and modified as described previously. To prepare defined fragments, 2 mg of α1(I) were dissolved in 1 ml of 70% (vol/vol) formic acid at room temperature, the tubes were flushed with nitrogen for 10 min, and then 2 mg of CB were added. After incubation for 4 h at 37°C, free CB was neutralized and the samples were lyophilized. The peptides CB3, CB6, CB7 and CB8 were separated from the reaction mixture by gel filtration followed by ion-exchange chromatography. The ...

For the substance “CI: native human collagen type I purified from skin tissue and placenta”, the “Binding of [125I]-MMPs” value is on record as 11.1 ± 1.8 % of maximum control in data set [1], 3.1 ± 0.5 % of maximum control in data set [2], 24.0 ± 5.6 % of maximum control in data set [3] and 30.9 ± 3.1 % of maximum control in data set [4]. Besides, the “effect of CI coating on activity” value in data set [5] and in data set [6] was “strong reduction in activity” each time. Further, the melting temperature in data set [7] was 33.8 °C.
